In patent US20120079993A1, “B[…]” (UNIVERSITY OF DURHAM, priority 2010, published 2012):

How the values were obtained:
mouse or rat = test: Elevated platform at 75 cm height: falling from the platform and locomotion; assay type: in vivo; conditions: 0.2 mg/kg i.p.; platform at 75 cm height
Source text: Most mice and rats do jump onto the ground when the platform is raised by 50 cm but not when it is raised by about 75 cm. […] If a manipulation does induce jumping onto or falling on the ground, the experiment cannot be continued with the group of animals displaying this behaviour. Lower the doses if using drugs. One can prevent animals from sliding from the platform by using a ledge (not higher than 0.5 cm height) on each side adjacent to the void space. […] At 100 cm height, the test is more anxiogenic (3) and it is likely to cancel its sensitivity to experimental manipulations. Because of animal welfare regulations, it is advised that a soft carpet (polyethylene foam map about 3-5 cm thick) is laid on the ground beneath the slopes. It is preferable that it is grey or dark unicolor and covers all the visible areas of the floor within the curtain perimeter that surrounds the test apparatus.

Balb/c mice = test: Open space anxiety test: elevated platform with steep slopes; conditions: amphetamine 5 and 10 mg/kg vs diazepam 0.5, 1 and 3 mg/kg

Compound	effect on locomotion (mouse or rat)	falling from the platform (mouse or rat)	number of crossings on the platform (motor activity) in amphetamine treated mice compared to diazepam treated mice (Balb/c mice)	number of crossings on the platform (motor activity) in amphetamine treated mice compared to diazepam treated mice (Balb/c mice; listed as Amphetamine)
C[C@]12N[C@H](Cc3ccccc31)c1ccccc12 [MK-801]	induced uncoordinated, unsteady locomotion	falling from the platform		
CC(N)Cc1ccccc1 (stereo not shown) [amphetamine]			double	at least two-fold
